Starred links: 1 amine or outer side, 2 acyl side, 3 side chain; linkers in the order of their positions; H or OH if unused. Non-standard residues stand in square brackets, D forms with d. Residues, ends and D or L forms follow the SMILES beside them. *: point of attachment. BODIPY(FL) = CC1=CC(C)=[N+]2C1=Cc1ccc(CCC(=O)*)n1[B-]2(F)F; X1 = O=C(CCc1cn(CCOCCOCCOCCN[*:1])nn1)[*:2]; Sta = CC(C)C[C@H](N)[C@@H](O)CC(=O)O; X2 = O=C(CN1CCC(N[*:1])CC1)[*:2]
Tests used:
[1] = target: T1, GRP receptor overexpressing PC-3 cells (Homo sapiens, UniProt P30550); assay: confocal live-cell imaging of uptake and blocking in PC-3 cells; format: cell-based; conditions: 37 °C, 30 min
T1 construct: host or cells: PC-3 (human prostate cancer cell line)
T1 sequence (P30550 whole entry): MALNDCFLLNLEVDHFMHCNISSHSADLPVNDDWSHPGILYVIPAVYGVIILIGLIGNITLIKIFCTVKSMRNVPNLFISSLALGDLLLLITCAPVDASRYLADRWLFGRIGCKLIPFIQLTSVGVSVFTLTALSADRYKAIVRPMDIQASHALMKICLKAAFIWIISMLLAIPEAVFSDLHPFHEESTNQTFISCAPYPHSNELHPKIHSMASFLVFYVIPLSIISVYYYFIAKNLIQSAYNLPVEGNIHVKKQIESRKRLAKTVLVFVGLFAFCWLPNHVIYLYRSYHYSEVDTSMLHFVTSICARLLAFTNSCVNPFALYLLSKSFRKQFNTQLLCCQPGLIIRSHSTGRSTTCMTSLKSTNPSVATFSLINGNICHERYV
Protocol: To determine BODIPY-BBN uptake in vitro, PC-3 cells (1.0 × 10^4 per well) were seeded in a two-well chamber slide (Nunc™ Lab-Tek™ II Chamber Slide™ System) containing growth media (1 mL) and incubated at 37 °C for 24 h. To study the uptake of BODIPY-BBN, PC-3 cells were incubated with 5 (10 nM in PBS, 37 °C for 30 min). At the same time blocking studies were performed. PC-3 cells were pre-incubated with RM2 (1000 nM in PBS, 37 °C for 5 min) before incubation with BODIPY-BBN (10 nM in PBS, 37 °C for 30 min). After washing with media (1.0 mL), blue whole cell stain was added and incubated at room temperature for 5 min. The cells were washed with PBS (3 × 1.0 mL), living cells were imaged using an inverted confocal microscope (Leica TCS SP5 II), and data were analyzed with Fiji.
(§1) The binding of BODIPY-BBN 5 toward GRP receptor overexpressing PC-3 cells was evaluated in confocal live-cell imaging (Fig. 4a). After incubation of BODIPY-BBN 5 (10 nM, 30 min), cells were treated with blue whole cell stain (5 min) and washed with PBS. […] We also confirmed the binding affinity of BODIPY-BBN 5 using [^125I-Tyr^4]bombesin in a competitive binding assay (Fig. 4b). […] We then determined the stability of our imaging tracer in human serum (37 °C) at pre-determined time points showing >90 % intact fluorescent imaging agent after 60 min of incubation (Additional file 1: Figure S6).

stability in human serum = format: in vitro ADME; conditions: 37 °C, after 60 min of incubation, time points 0, 15, 30, 45, 60 min, fluorescence read-out
Protocol: as §1
Figure S6: Percent intact fluorescent ^19F-BODIPY-BBN in human serum at different time points (0, 15, 30, 45, and 60 min) after incubation at 37 °C.

binding in confocal live-cell imaging ([1]; PC-3 cells, 10 nM in PBS, green fluorescence): antagonist-specific binding
Structure (SMILES): Cc1cc(C)n2c1C=C1C=CC(CCC(=O)NCCOCCOCCOCCn3cc(CCC(=O)NC4CCN(CC(=O)N[C@H](Cc5ccccc5)C(=O)N[C@@H](CCC(N)=O)C(=O)N[C@@H](Cc5c[nH]c6ccccc56)C(=O)N[C@@H](C)C(=O)N[C@H](C(=O)NCC(=O)N[C@@H](Cc5c[nH]cn5)C(=O)N[C@@H](CC(C)C)[C@@H](O)CC(=O)N[C@@H](CC(C)C)C(N)=O)C(C)C)CC4)nn3)=[N+]1[B-]2(F)F [BODIPY-BBN 5] ({BODIPY(FL)}-[X1][X2][dF]QWAVGH[Sta]L-NH2)
fluorescent signal after blocking (GRP receptor specificity) ([1]; PC-3 cells pre-incubated with 100-fold excess of unlabeled GRP receptor antagonist (1000 nM, 5 min), then 10 nM probe): complete suppression of green fluorescent signal | intact fluorescent imaging agent in human serum (stability in human serum): > 90%

From PMC4540712, “Development of a clickable bimodal fluorescent/PET probe for in vivo imaging” (EJNMMI Research, 2015)
